US9006250B2, “4-amino-6-(heterocyclic)picolinates and 6-amino-2-(heterocyclic)pyrimidine-4-carboxylates and their use as herbicides” (Dow AgroSciences, LLC, priority 2013, dated 2015)

How the values were obtained:
Format in all cases: in vivo
[1] = tested on: AVEFA: wild oats (Avena fatua); assay: Post-Emergent Test I herbicidal activity; details: 4 Kg ai/ha
Experimental: (§1) Post-Emergent Test I: Seeds test species were obtained from commercial suppliers and planted into a 5″-round pot containing soil-less media mix (Metro-Mix 360®, Sun Gro Horticulture). Postemergence treatments were planted 8-12 days (d) prior to application and cultured in a greenhouse equipped with supplemental light sources to provide a 16 hour (h) photoperiod at 24-29° C. All pots were surface irrigated. Approximately 10 milligrams (mg) of each compound were dissolved in 1.3 mL acetone-DMSO (97:3, v/v) and diluted with 4.1 mL water-isopropanol-crop oil concentrate (78:20:2, v/v/v) containing 0.02% Triton X-155. Treatments were serial diluted with the above formulation solvent to provide 1.85, 0.926, 0.462 and 0.231 mg/mL of test compound delivered in 2.7 mL/pot (roughly equivalent to 4.0, 2.0, 1.0, and 0.5 kg/ha, respectively). Formulated compounds were applied using a DeVilbiss® compressed air sprayer at 2-4 pounds per square inch (psi). Following treatment, pots were returned to the greenhouse for the duration of the experiment. All pots were sub-irrigated as need to provide optimum growing conditions. All pots were fertilized one time per week by subirrigating with Peters Peat-Lite Special® fertilizer (20-10-20). Phytotoxicity ratings were obtained 10 days after treatment postemergence applications. All evaluations were made visually on a scale of 0 to 100 where 0 represents no activity and 100 represents complete plant death. Visual assessments of plant injury were made based on growth reduction, discoloration, leaf deformity and necrosis.

[2] = tested on: ECHCG: barnyardgrass (Echinochloa crus-galli); assay: Post-Emergent Test I herbicidal activity; details: 4 Kg ai/ha
Experimental: as §1

[3] = tested on: HELAN: sunflower (Helianthus annuus); assay: Post-Emergent Test I herbicidal activity; details: 4 Kg ai/ha
Experimental: as §1

[4] = tested on: IPOHE: ivyleaf morningglory (Ipomoea hederecea); assay: Post-Emergent Test I herbicidal activity; details: 4 Kg ai/ha
Experimental: as §1

[5] = tested on: SETFA: giant foxtail (Setaria faberi); assay: Post-Emergent Test I herbicidal activity; details: 4 Kg ai/ha
Experimental: as §1

[6] = tested on: BRAPP: broadleaf signalgrass, Brachiaria platyphylla; assay: Postemergence herbicidal activity in direct seeded rice
Excerpt: (§2) Seeds or nutlets of the desired test plant species were planted in a soil matrix prepared by mixing a loam soil (43 percent silt, 19 percent clay, and 38 percent sand, with a pH of about 8.1 and an organic matter content of about 1.5 percent) and river sand in an 80 to 20 ratio. The soil matrix was contained in plastic pots with a surface area of 139.7 cm^2. When required to ensure good germination and healthy plants, a fungicide treatment and/or other chemical or physical treatment was applied. The plants were grown for 10-17 d in a greenhouse with an approximate 14-h photoperiod which was maintained at about 29° C. during the day and 26° C. during the night. Nutrients and water were added on a regular basis and supplemental lighting was provided with overhead metal halide 1000-Watt lamps as necessary. The plants were employed for testing when they reached the second or third true leaf stage. A weighed amount, determined by the highest rate to be tested, of each test compound was placed in 25 mL glass vials and dissolved in a volume of 97:3 v/v acetone-DMSO to obtain 12× stock solutions. […] The concentrated stock solutions were added to the spray solutions so that the final acetone and DMSO concentrations were 16.2% and 0.5%, respectively. Spray solutions were diluted to the appropriate final concentrations with the addition of 10 mL of an aqueous mixture of 1.5% (v/v) Agri-dex crop oil concentrate. The final spray solutions contained 1.25% (v/v) Agri-dex crop oil concentrate. Compound requirements are based upon a 12 mL application volume at a rate of 187 L/ha. Formulated compounds were applied to the plant material with an overhead Mandel track sprayer equipped with […] nozzles calibrated to deliver 187 L/ha over an application area of 0.503 square meters (m^2) at a spray height of 18 inches ([…]) above average plant canopy height. Control plants were sprayed in the same manner with the solvent blank. The treated plants and control plants were placed in a greenhouse as described above and watered by sub-irrigation to prevent wash-off of the test compounds. After 20-22 days, the condition of the test plants, compared with that of the untreated plants, was determined visually and scored on a scale of 0 to 100 percent where 0 corresponds to no injury and 100 corresponds to complete kill. By applying the well-accepted probit analysis as described by J. Berkson in […], 48, 565 (1953) and by D. Finney in “Probit Analysis” Cambridge University Press (1952), the above data can be used to calculate GR20, GR50, GR80 and GR90 values, which are defined as growth reduction factors that correspond to the effective dose of herbicide required to kill or control 20 percent, 50 percent, 80 percent or 90 percent, respectively, of a target plant.

[7] = tested on: CYPDI: small-flower flatsedge, Cyperus difformis; assay: as above
Excerpt: as §2

[8] = tested on: CYPIR: rice flatsedge, Cyperus iria; assay: as above
Excerpt: as §2

[9] = tested on: ECHCO: junglerice, Echinochloa colonum; assay: as above
Excerpt: as §2

ORYSK: Oryza sativa = assay: as above
Excerpt: as §2

[10] = tested on: SCPJU: Japanese bulrush, Scirpus juncoides; assay: as above
Excerpt: as §2

[11] = tested on: SEBEX: hemp sesbania, Sesbania exaltata; assay: as above
Excerpt: as §2

[12] = dose for 50 percent control, probit analysis
[13] = dose for 80 percent control, probit analysis
[14] = dose for 90 percent control, probit analysis

COC(=O)c1nc(-c2cc3nonc3cc2F)nc(N)c1OC [Compound 10, Methyl 6-amino-2-(6-fluorobenzo[c][1,2,5]oxadiazol-5-yl)-5-methoxypyrimidine-4-carboxylate]
Visual Growth Reduction (%) 10 Days After Application AVEFA [1]: C (75-84) | Visual Growth Reduction (%) 10 Days After Application ECHCG [2]: C (75-84) | Visual Growth Reduction (%) 10 Days After Application HELAN [3]: C (75-84) | Visual Growth Reduction (%) 10 Days After Application IPOHE [4]: C (75-84) | Visual Growth Reduction (%) 10 Days After Application SETFA [5]: C (75-84)

COC(=O)c1nc(-c2ccc3nsnc3c2)c(F)c(N)c1Cl [Compound 11]
Visual Growth Reduction (%) 21 Days After Application BRAPP ([6]; 17.5 g ai/ha): G (0-29) | Visual Growth Reduction (%) 21 Days After Application BRAPP ([6]; 35 g ai/ha): G (0-29) | Visual Growth Reduction (%) 21 Days After Application BRAPP ([6]; 70 g ai/ha): E (45-59) | GR50 BRAPP [6, 12]: >70 g ai/ha | GR80 BRAPP [6, 13]: >70 g ai/ha | GR90 BRAPP [6, 14]: >70 g ai/ha | Visual Growth Reduction (%) 21 Days After Application CYPDI ([7]; 17.5 g ai/ha): A (95-100) | Visual Growth Reduction (%) 21 Days After Application CYPDI ([7]; 35 g ai/ha): A (95-100) | Visual Growth Reduction (%) 21 Days After Application CYPDI ([7]; 70 g ai/ha): A (95-100) | GR50 CYPDI [7, 12]: 6 g ai/ha | GR80 CYPDI [7, 13]: 11 g ai/ha | GR90 CYPDI [7, 14]: 16 g ai/ha | Visual Growth Reduction (%) 21 Days After Application CYPIR ([8]; 17.5 g ai/ha): G (0-29) | Visual Growth Reduction (%) 21 Days After Application CYPIR ([8]; 35 g ai/ha): E (45-59) | Visual Growth Reduction (%) 21 Days After Application CYPIR ([8]; 70 g ai/ha): F (30-44) | GR50 CYPIR [8, 12]: 78 g ai/ha | GR80 CYPIR [8, 13]: 212 g ai/ha | GR90 CYPIR [8, 14]: 357 g ai/ha | Visual Growth Reduction (%) 21 Days After Application ECHCO ([9]; 17.5 g ai/ha): E (45-59) | Visual Growth Reduction (%) 21 Days After Application ECHCO ([9]; 35 g ai/ha): D (60-74) | Visual Growth Reduction (%) 21 Days After Application ECHCO ([9]; 70 g ai/ha): C (75-84) | GR50 ECHCO [9, 12]: 15 g ai/ha | GR80 ECHCO [9, 13]: 107 g ai/ha | GR90 ECHCO [9, 14]: 300 g ai/ha | Visual Growth Reduction (%) 21 Days After Application ORYSK (ORYSK: Oryza sativa; 17.5 g ai/ha): G (0-29) | Visual Growth Reduction (%) 21 Days After Application ORYSK (ORYSK: Oryza sativa; 35 g ai/ha): G (0-29) | Visual Growth Reduction (%) 21 Days After Application ORYSK (ORYSK: Oryza sativa; 70 g ai/ha): G (0-29) | GR20 ORYSK (ORYSK: Oryza sativa; dose for 20 percent growth reduction, probit analysis): >70 g ai/ha | Visual Growth Reduction (%) 21 Days After Application SCPJU ([10]; 17.5 g ai/ha): A (95-100) | Visual Growth Reduction (%) 21 Days After Application SCPJU ([10]; 35 g ai/ha): A (95-100) | Visual Growth Reduction (%) 21 Days After Application SCPJU ([10]; 70 g ai/ha): A (95-100) | GR50 SCPJU [10, 12]: 4 g ai/ha | GR80 SCPJU [10, 13]: 9 g ai/ha | GR90 SCPJU [10, 14]: 14 g ai/ha | Visual Growth Reduction (%) 21 Days After Application SEBEX ([11]; 17.5 g ai/ha): C (75-84) | Visual Growth Reduction (%) 21 Days After Application SEBEX ([11]; 35 g ai/ha): A (95-100) | Visual Growth Reduction (%) 21 Days After Application SEBEX ([11]; 70 g ai/ha): A (95-100) | GR50 SEBEX [11, 12]: 4 g ai/ha | GR80 SEBEX [11, 13]: 11 g ai/ha | GR90 SEBEX [11, 14]: 19 g ai/ha
